Where a SMILES comes first, the peptide text is derived from it. [ ]: non-standard residue; d: D form. NMeF = CN[C@@H](Cc1ccccc1)C(=O)O; dNMeF = CN[C@H](Cc1ccccc1)C(=O)O; NMeL = CN[C@@H](CC(C)C)C(=O)O; dNMeL = CN[C@H](CC(C)C)C(=O)O; dNMeV = CN[C@@H](C(=O)O)C(C)C; NMeV = CN[C@H](C(=O)O)C(C)C; NMeA = CN[C@@H](C)C(=O)O; dNMeA = CN[C@H](C)C(=O)O; Aib = CC(C)(N)C(=O)O
Details: for PAMPA_Papp_Avg (apparent permeability): PAMPA

PAMPA_Papp_Avg (apparent permeability) | membrane permeability in PAMPA (in words) | Compound
1.77e-06 cm/s |  | CC(C)[C@@H]1C(=O)N[C@@H](Cc2ccccc2)C(=O)N2CCC[C@H]2C(=O)N(C)[C@H](Cc2ccccc2)C(=O)N[C@H](C)C(=O)N2CCC[C@H]2C(=O)N1C (single isomer, unassigned) [Design D6.8.p2, *faP*vFP]
6.77e-06 cm/s |  | CC(C)C[C@H]1C(=O)N2CCC[C@@H]2C(=O)N[C@@H](Cc2ccccc2)C(=O)N2CCC[C@H]2C(=O)N[C@H](C(C)C)C(=O)N[C@H](Cc2ccccc2)C(=O)N1C (single isomer, unassigned) [Design D6.9.p2, vf*LpFP]
8.79e-07 cm/s |  | CC(C)C[C@@H]1C(=O)N(C)[C@@H](CC(C)C)C(=O)N2CCC[C@@H]2C(=O)N[C@H](CC(C)C)C(=O)N[C@H](C)C(=O)N2CCC[C@@H]2C(=O)N2CCC[C@H]2C(=O)N[C@@H](C)C(=O)N[C@H](Cc2ccccc2)C(=O)N[C@H](CC(C)C)C(=O)N[C@@H](C(C)C)C(=O)N1C (single isomer, unassigned) [Design D11.9.p1, V*l*LplapPAfl]
2.09e-06 cm/s |  | CC(C)C[C@@H]1C(=O)N(C)[C@@H](CC(C)C)C(=O)N2CCC[C@@H]2C(=O)N[C@H](CC(C)C)C(=O)N[C@H](C)C(=O)N2CCC[C@@H]2C(=O)N2CCC[C@H]2C(=O)N[C@@H](C)C(=O)N[C@H](Cc2ccccc2)C(=O)N[C@H](CC(C)C)C(=O)N[C@@H](C(C)C)C(=O)N1C (single isomer, unassigned) [Design D11.9.p2, V*l*LplapPAfl]
3.34e-06 cm/s |  | CC[C@@H](C)[C@H]1NC(=O)[C@@H](Cc2ccccc2)NC(=O)[C@@H]2CCCN2C(=O)[C@@H]([C@H](C)CC)NC(=O)[C@@H](Cc2ccccc2)NC(=O)[C@@H]2CCCN2C1=O [Design D6.1, iPfiPf] (cyclo(P[dF][dI]P[dF][dI]))
1.22e-05 cm/s |  | CC[C@@H](C)[C@H]1NC(=O)[C@@H](Cc2ccccc2)N(C)C(=O)[C@@H]2CCCN2C(=O)[C@@H]([C@H](C)CC)NC(=O)[C@@H](Cc2ccccc2)N(C)C(=O)[C@@H]2CCCN2C1=O [Design D6.2, iP*fiP*f] (cyclo(P[dNMeF][dI]P[dNMeF][dI]))
1.99e-06 cm/s |  | CC(C)C[C@H]1NC(=O)[C@@H]2CCCN2C(=O)[C@@H]2CCCN2C(=O)[C@@H](C)NC(=O)[C@@H](Cc2ccccc2)NC(=O)[C@H]2CCCN2C1=O [Design D6.3, pfaPpl] (cyclo(PP[dL][dP][dF][dA]))
1.39e-05 cm/s |  | CC(C)C[C@H]1NC(=O)[C@@H]2CCCN2C(=O)[C@@H]2CCCN2C(=O)[C@@H](C)NC(=O)[C@@H](Cc2ccccc2)N(C)C(=O)[C@H]2CCCN2C1=O [Design D6.4, p*faPPl] (cyclo(PP[dL][dP][dNMeF][dA]))
2.41e-06 cm/s |  | CC(C)[C@@H]1NC(=O)[C@@H]2CCCN2C(=O)[C@@H]2CCCN2C(=O)[C@@H](Cc2ccccc2)NC(=O)[C@@H]2CCCN2C(=O)[C@@H](Cc2ccccc2)NC1=O [Design D6.5, PPVfPf] (cyclo(PPV[dF]P[dF]))
3.64e-06 cm/s |  | CC(C)[C@H]1C(=O)N[C@H](Cc2ccccc2)C(=O)N2CCC[C@H]2C(=O)N[C@H](Cc2ccccc2)C(=O)N2CCC[C@H]2C(=O)N2CCC[C@H]2C(=O)N1C [Design D6.6, PP*VfPf] (cyclo([NMeV][dF]P[dF]PP))
4.24e-07 cm/s |  | CC(C)[C@H]1NC(=O)[C@@H]2CCCN2C(=O)[C@@H](C)NC(=O)[C@@H](Cc2ccccc2)NC(=O)[C@@H]2CCCN2C(=O)[C@H](Cc2ccccc2)NC1=O [Design D6.7, faPvFP] (cyclo(FP[dF][dA]P[dV]))
1.16e-05 cm/s |  | CC(C)C[C@H]1C(=O)N2CCC[C@@H]2C(=O)N[C@@H](Cc2ccccc2)C(=O)N2CCC[C@H]2C(=O)N(C)[C@H](C(C)C)C(=O)N[C@H](Cc2ccccc2)C(=O)N1C [Design D6.10, *vf*LpFP] (cyclo(FP[dNMeV][dF][NMeL][dP]))
2.93e-06 cm/s |  | CC[C@H](C)[C@@H]1NC(=O)[C@H]2CCCN2C(=O)[C@@H]2CCCN2C(=O)[C@H](CC(C)C)NC(=O)[C@@H](C(C)C)NC(=O)[C@@H](CC(C)C)N(C)C(=O)[C@@H]2CCCN2C1=O [Design D7.1, P*lvLPpI] (cyclo(IP[dNMeL][dV]LP[dP]))
6.64e-06 cm/s |  | CC(C)C[C@@H]1NC(=O)[C@@H](CC(C)C)NC(=O)[C@H]2CCCN2C(=O)[C@@H]2CCCN2C(=O)[C@@H](CC(C)C)NC(=O)[C@@H](CC(C)C)N(C)C(=O)[C@@H]2CCCN2C1=O [Design D7.5, LP*llPpl] (cyclo(LP[dNMeL][dL]P[dP][dL]))
3.62e-06 cm/s |  | CC(C)C[C@@H]1NC(=O)[C@@H]2CCCN2C(=O)[C@H]2CCCN2C(=O)[C@H](CC(C)C)NC(=O)[C@H](C)N(C)C(=O)[C@H]2CCCN2C(=O)[C@@H](CC(C)C)NC1=O [Design D7.6, lp*ALpPL] (cyclo(L[dL][dP][NMeA]L[dP]P))
7.09e-06 cm/s |  | CC[C@H](C)[C@@H]1NC(=O)[C@H](Cc2ccccc2)N(C)C(=O)[C@H]2CCCN2C(=O)[C@H]([C@@H](C)CC)NC(=O)[C@H](C(C)C)NC(=O)[C@@H](C)NC(=O)[C@H]2CCCN2C1=O [Design D7.9, VIp*FIpa] (cyclo(I[dP][NMeF]I[dP][dA]V))
6.94e-06 cm/s | most permeable 8 residue design in PAMPA | CC(C)C[C@@H]1NC(=O)[C@@H](CC(C)C)NC(=O)[C@H]2CCCN2C(=O)[C@H](CC(C)C)NC(=O)[C@@H](CC(C)C)NC(=O)[C@H](CC(C)C)NC(=O)[C@@H]2CCCN2C(=O)[C@@H](C)NC1=O [Design D8.1, lLplLaPL] (cyclo(L[dA]PL[dL]L[dP][dL]))
7.49e-06 cm/s |  | CC[C@@H](C)[C@H]1NC(=O)[C@@H](CC(C)C)NC(=O)C(C)(C)NC(=O)[C@@H]2CCCN2C(=O)[C@@H]([C@H](C)CC)NC(=O)[C@@H](CC(C)C)NC(=O)C(C)(C)NC(=O)[C@@H]2CCCN2C1=O [Design D8.2, PBliPBLi] (cyclo([Aib][dL][dI]P[Aib][dL][dI]P))
3.35e-06 cm/s |  | CC(C)C[C@@H]1NC(=O)[C@H]2CCCN2C(=O)[C@@H]2CCCN2C(=O)[C@H](CC(C)C)NC(=O)[C@@H](CC(C)C)NC(=O)[C@@H](C)N(C)C(=O)[C@@H](C)N(C)C(=O)[C@@H](C(C)C)NC1=O [Design D8.6, LPpLv*a*al] (cyclo(LP[dP]L[dV][dNMeA][dNMeA][dL]))
5.9e-06 cm/s |  | CC[C@@H](C)[C@H]1NC(=O)[C@@H](CC(C)C)N(C)C(=O)[C@@H]2CCCN2C(=O)[C@@H]([C@H](C)CC)NC(=O)[C@@H](CC(C)C)NC(=O)[C@@H](CC(C)C)N(C)C(=O)[C@@H]2CCCN2C(=O)[C@@H](C(C)C)NC1=O [Design D8.8, P*lliP*liv] (cyclo(P[dNMeL][dI][dV]P[dNMeL][dL][dI]))
1.23e-06 cm/s |  | CC(C)C[C@@H]1C(=O)N[C@H](CC(C)C)C(=O)N2CCC[C@@H]2C(=O)N2CCC[C@@H]2C(=O)N(C)[C@@H](C)C(=O)N[C@H](Cc2ccccc2)C(=O)N[C@@H](C)C(=O)N(C)[C@@H](CC(C)C)C(=O)N1C [Design D8.10, pp*AfA*L*ll] (cyclo(A[NMeL][dNMeL][dL][dP][dP][NMeA][dF]))
2.16e-06 cm/s |  | CC[C@H](C)[C@@H]1NC(=O)[C@@H](C(C)C)NC(=O)[C@H](CC(C)C)N(C)C(=O)[C@H]2CCCN2C(=O)[C@H]2CCCN2C(=O)[C@H](C(C)C)NC(=O)[C@@H](CC(C)C)NC(=O)[C@H]2CCCN2C1=O [Design D8.16, plVpp*LvI] (cyclo(I[dP][dL]V[dP][dP][NMeL][dV]))
1.04e-06 cm/s |  | CC[C@@H](C)[C@H]1NC(=O)[C@@H]2CCCN2C(=O)[C@@H](CC(C)C)N(C)C(=O)[C@@H](C(C)C)NC(=O)[C@@H]2CCCN2C(=O)[C@@H](CC(C)C)N(C)C(=O)[C@H](C)N(C)C(=O)[C@@H](C)NC1=O [Design D8.18, ia*A*lPv*lP] (cyclo([NMeA][dNMeL]P[dV][dNMeL]P[dI][dA]))
1.08e-06 cm/s |  | CC(C)C[C@@H]1C(=O)N(C)[C@H](Cc2ccccc2)C(=O)N(C)[C@@H](CC(C)C)C(=O)N[C@H](C(C)C)C(=O)N[C@H](C)C(=O)N2CCC[C@@H]2C(=O)N2CCC[C@H]2C(=O)N[C@H](C)C(=O)N1C [Design D8.20, Pa*l*f*Lvap] (cyclo([dA][dNMeL][dNMeF][NMeL][dV][dA][dP]P))
 | significant permeability | CC(C)C[C@@H]1NC(=O)[C@H]2CCCN2C(=O)[C@H](CC(C)C)N(C)C(=O)[C@@H](C(C)C)NC(=O)[C@H](CC(C)C)NC(=O)[C@H]2CCCN2C(=O)[C@H](CC(C)C)N(C)C(=O)[C@@H](C(C)C)NC1=O [Design D8.21, v*LpLv*LpL] (cyclo(L[dV][NMeL][dP]L[dV][NMeL][dP]))
2.15e-07 cm/s |  | CC(C)C[C@@H]1C(=O)N[C@@H](C(C)C)C(=O)N[C@@H](C)C(=O)N2CCC[C@H]2C(=O)N2CCC[C@@H]2C(=O)N[C@@H](C(C)C)C(=O)N[C@@H](C)C(=O)N(C)[C@@H](CC(C)C)C(=O)N1C [Design D8.22, APpVA*L*lV] (cyclo(A[NMeL][dNMeL]VAP[dP]V))
1.28e-06 cm/s |  | CC(C)C[C@@H]1C(=O)N(C)[C@H](CC(C)C)C(=O)N[C@H](CC(C)C)C(=O)N[C@@H](C(C)C)C(=O)N2CCC[C@@H]2C(=O)N2CCC[C@H]2C(=O)N[C@H](CC(C)C)C(=O)N[C@@H](C(C)C)C(=O)N1C [Design D8.23, lV*l*llVpP] (cyclo([dL]V[dNMeL][dNMeL][dL]V[dP]P))
8.24e-07 cm/s |  | CC(C)C[C@@H]1C(=O)N[C@H](C)C(=O)N(C)[C@H](CC(C)C)C(=O)N2CCC[C@@H]2C(=O)N[C@H](CC(C)C)C(=O)N[C@@H](C)C(=O)N[C@H](CC(C)C)C(=O)N2CCC[C@@H]2C(=O)N1C [Design D8.25, lp*la*lplA] (cyclo(A[dL][dP][dNMeL][dA][dNMeL][dP][dL]))
4.32e-06 cm/s |  | CC(C)C[C@@H]1NC(=O)[C@H](CC(C)C)N(C)C(=O)[C@H]2CCCN2C(=O)[C@@H](C)NC(=O)[C@@H](C)N(C)C(=O)[C@@H](C(C)C)NC(=O)[C@@H](CC(C)C)N(C)C(=O)[C@@H]2CCCN2C1=O [Design D8.30, ap*LLP*lv*a] (cyclo(LP[dNMeL][dV][dNMeA][dA][dP][NMeL]))
